Test results published in ChEMBL document CHEMBL1201862, “PubChem BioAssay data set” (2004).
Values joined by “and” are separate entries in the source; they are usually repeats but may differ in a detail not shown here. Identical values can stand only once.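 Method: 48-hour compound exposure of cells in 96-well plates, five concentrations, linear interpolation of endpoints. The concentration for 50% growth inhibition is given as GI50.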 Active and inactive are the calls of the source. Rule as the data show it: active = GI50 up to about 1.1 µM and inactive = higher.

How the values were obtained:
Experiment in all cases: inhibition of tumour cell growth, NCI panel, 48 h
M14 = system: M14
SF-539 = system: SF-539
OVCAR-8 = system: OVCAR-8
HOP-62 = system: HOP-62
HL-60 = system: HL-60
IGROV-1 = system: IGROV-1
HOP-92 = system: HOP-92
786-0 = system: 786-0
UACC-62 = system: UACC-62
KM-20L2 = system: KM-20L2
DU-145 = system: DU-145
PC-3 = system: PC-3
SF-268 = system: SF-268
NCI/ADR-RES = system: NCI/ADR-RES
Hs-578T = system: Hs-578T
SK-MEL-2 = system: SK-MEL-2
SNB-78 = system: SNB-78
HCT-15 = system: HCT-15
RPMI-8226 = system: RPMI-8226
MCF7 = system: MCF7
SF-295 = system: SF-295
U-251 = system: U-251
CCRF-CEM = system: CCRF-CEM
HOP-18 = system: HOP-18
UACC-257 = system: UACC-257
MOLT-4 = system: MOLT-4
SK-OV-3 = system: SK-OV-3
SNB-75 = system: SNB-75
K562 = system: K562
DMS-114 = system: DMS-114
SNB-19 = system: SNB-19
COLO 205 = system: COLO 205
EKVX = system: EKVX
SR = system: SR
A498 = system: A498
HCC 2998 = system: HCC 2998
A549 = system: A549
NCI-H522 = system: NCI-H522
NCI-H226 = system: NCI-H226
LOX IMVI = system: LOX IMVI
LXFL 529 = system: LXFL 529
KM12 = system: KM12
M19-MEL = system: M19-MEL
DLD-1 = system: DLD-1
DMS-273 = system: DMS-273
OVCAR-4 = system: OVCAR-4
SN12C = system: SN12C
ACHN = system: ACHN
RXF 393 = system: RXF 393
OVCAR-3 = system: OVCAR-3
SK-MEL-5 = system: SK-MEL-5
SW-620 = system: SW-620
CAKI-1 = system: CAKI-1
HT-29 = system: HT-29
Malme-3M = system: Malme-3M
NCI-H460 = system: NCI-H460
UO-31 = system: UO-31
SK-MEL-28 = system: SK-MEL-28
HCT-116 = system: HCT-116
TK-10 = system: TK-10
NCI-H23 = system: NCI-H23

SMILES: Cc1ccc(C)c(NC(=O)CC2Sc3ccccc3NC2=O)c1 (configuration not stated)
- GI50 (M14): 51.3 µM (inactive)
- GI50 (SF-539): 33.7 µM (inactive) and 29.4 µM (inactive)
- GI50 (OVCAR-8): 15.5 µM (inactive) and 18.6 µM (inactive)
- GI50 (HOP-62): 20.7 µM (inactive) and 17.6 µM (inactive)
- GI50 (HL-60): > 96.4 µM (inactive) and > 56.2 µM (inactive)
- GI50 (IGROV-1): 20.8 µM (inactive) and 35.7 µM (inactive)
- GI50 (HOP-92): 19.1 µM (inactive) and 11.9 µM (inactive)
- GI50 (786-0): 18.3 µM (inactive) and 25.2 µM (inactive)
- GI50 (UACC-62): 68.9 µM (inactive) and > 85.5 µM (inactive)
- GI50 (KM-20L2): > 100 µM (inactive) and > 96.8 µM (inactive)
- GI50 (DU-145): > 100 µM (inactive) and > 74.1 µM (inactive)
- GI50 (PC-3): > 89.7 µM (inactive) and 79.3 µM (inactive)
- GI50 (SF-268): 14.7 µM (inactive) and 26.2 µM (inactive)
- GI50 (NCI/ADR-RES): > 49 µM (inactive)
- GI50 (Hs-578T): 22.6 µM (inactive)
- GI50 (SK-MEL-2): 30.1 µM (inactive) and 50.8 µM (inactive)
- GI50 (SNB-78): 14.5 µM (inactive) and 23.1 µM (inactive)
- GI50 (HCT-15): 38.7 µM and 61 µM
- GI50 (RPMI-8226): > 100 µM (inactive) and 53 µM (inactive)
- GI50 (MCF7): > 95.5 µM (inactive) and 62.4 µM (inactive)
- GI50 (SF-295): 27.9 µM (inactive) and 50.1 µM (inactive)
- GI50 (U-251): 15 µM (inactive) and 27 µM (inactive)
- GI50 (CCRF-CEM): > 56.2 µM (inactive) and > 86.3 µM (inactive)
- GI50 (HOP-18): 25.1 µM (inactive) and 16.7 µM (inactive)
- GI50 (UACC-257): 34.2 µM (inactive) and > 67 µM (inactive)
- GI50 (MOLT-4): > 56.2 µM (inactive) and > 77.3 µM (inactive)
- GI50 (SK-OV-3): 21.2 µM (inactive) and 22.7 µM (inactive)
- GI50 (SNB-75): 10.7 µM (inactive) and 10.4 µM (inactive)
- GI50 (K562): > 56.2 µM (inactive) and 68.5 µM (inactive)
- GI50 (DMS-114): 49.5 µM (inactive) and 30.3 µM (inactive)
- GI50 (SNB-19): 19.8 µM (inactive) and 32.7 µM (inactive)
- GI50 (COLO 205): > 100 µM (inactive)
- GI50 (EKVX): 75.7 µM (inactive) and > 70.5 µM (inactive)
- GI50 (SR): > 46.5 µM (inactive) and 27.8 µM (inactive)

SMILES: CCOC(=O)NC(=O)c1cn(C(CC)COC(=O)NCCCCCCNC(=O)OCC(CC)n2cc(C(=O)NC(=O)OCC)c(=O)[nH]c2=O)c(=O)[nH]c1=O (configuration not stated)
- GI50 (M14): > 100 µM (inactive)
- GI50 (OVCAR-8): > 100 µM (inactive)
- GI50 (HOP-62): > 100 µM (inactive)
- GI50 (HL-60): > 100 µM (inactive)
- GI50 (A498): > 100 µM (inactive)
- GI50 (HCC 2998): > 100 µM (inactive)
- GI50 (IGROV-1): > 100 µM (inactive)
- GI50 (A549): > 100 µM (inactive)
- GI50 (NCI-H522): > 100 µM (inactive)
- GI50 (786-0): > 100 µM (inactive)
- GI50 (NCI-H226): > 100 µM (inactive)
- GI50 (UACC-62): > 100 µM (inactive)
- GI50 (KM-20L2): > 100 µM (inactive)
- GI50 (LOX IMVI): > 100 µM (inactive)
- GI50 (LXFL 529): > 100 µM (inactive)
- GI50 (KM12): > 100 µM (inactive)
- GI50 (M19-MEL): > 100 µM (inactive)
- GI50 (DLD-1): > 10 µM (inactive)
- GI50 (DMS-273): > 100 µM (inactive)
- GI50 (OVCAR-4): > 100 µM (inactive)
- GI50 (SN12C): > 100 µM (inactive)
- GI50 (ACHN): > 100 µM (inactive)
- GI50 (SF-268): > 100 µM (inactive)
- GI50 (SK-MEL-2): > 100 µM (inactive)
- GI50 (RXF 393): > 100 µM (inactive)
- GI50 (OVCAR-3): > 100 µM (inactive)
- GI50 (SNB-78): > 100 µM (inactive)
- GI50 (HCT-15): > 100 µM
- GI50 (RPMI-8226): > 100 µM (inactive)
- GI50 (SK-MEL-5): > 100 µM (inactive)
- GI50 (SF-295): > 100 µM (inactive)
- GI50 (U-251): > 100 µM (inactive)
- GI50 (CCRF-CEM): > 100 µM (inactive)
- GI50 (HOP-18): > 100 µM (inactive)
- GI50 (UACC-257): > 100 µM (inactive)
- GI50 (SW-620): > 100 µM (inactive)
- GI50 (MOLT-4): > 100 µM (inactive)
- GI50 (SK-OV-3): > 100 µM (inactive)
- GI50 (SNB-75): > 100 µM (inactive)
- GI50 (CAKI-1): > 100 µM (inactive)
- GI50 (K562): > 100 µM (inactive)
- GI50 (DMS-114): > 100 µM (inactive)
- GI50 (SNB-19): > 100 µM (inactive)
- GI50 (COLO 205): > 100 µM (inactive)
- GI50 (HT-29): > 100 µM (inactive)
- GI50 (EKVX): > 100 µM (inactive)
- GI50 (Malme-3M): > 100 µM (inactive)
- GI50 (NCI-H460): > 100 µM (inactive)
- GI50 (UO-31): > 100 µM (inactive)
- GI50 (SK-MEL-28): > 100 µM (inactive)
- GI50 (HCT-116): > 100 µM (inactive)

SMILES: O=C1CCCCCCC2=C1C(Sc1ccccc1)CC2 (configuration not stated)
- GI50 (M14): 45.9 µM (inactive)
- GI50 (OVCAR-8): 23 µM (inactive)
- GI50 (HOP-62): > 100 µM (inactive)
- GI50 (HL-60): 12.8 µM (inactive)
- GI50 (A549): 45.5 µM (inactive)
- GI50 (NCI-H522): 18.5 µM (inactive)
- GI50 (786-0): 17.7 µM (inactive)
- GI50 (TK-10): 36.6 µM (inactive)
- GI50 (NCI-H226): 29.5 µM (inactive)
- GI50 (UACC-62): 36.1 µM (inactive)
- GI50 (KM-20L2): 41.6 µM (inactive)
- GI50 (LOX IMVI): 15.8 µM (inactive)
- GI50 (LXFL 529): 35.4 µM (inactive)
- GI50 (KM12): 23.2 µM (inactive)
- GI50 (M19-MEL): 50.2 µM (inactive)
- GI50 (DMS-273): 26.2 µM (inactive)
- GI50 (OVCAR-4): 63.2 µM (inactive)
- GI50 (SN12C): 19.9 µM (inactive)
- GI50 (ACHN): 36.1 µM (inactive)
- GI50 (SF-268): 19.9 µM (inactive)
- GI50 (RXF 393): 18.9 µM (inactive)
- GI50 (SNB-78): > 100 µM (inactive)
- GI50 (HCT-15): 31.7 µM
- GI50 (RPMI-8226): 30.3 µM (inactive)
- GI50 (SK-MEL-5): 30.5 µM (inactive)
- GI50 (SF-295): 45 µM (inactive)
- GI50 (U-251): 37.1 µM (inactive)
- GI50 (CCRF-CEM): 9.08 µM (inactive)
- GI50 (HOP-18): > 100 µM (inactive)
- GI50 (UACC-257): 43.2 µM (inactive)
- GI50 (SW-620): 36.3 µM (inactive)
- GI50 (MOLT-4): 18.1 µM (inactive)
- GI50 (SK-OV-3): 83 µM (inactive)
- GI50 (SNB-75): 21.1 µM (inactive)
- GI50 (K562): 27.2 µM (inactive)
- GI50 (NCI-H23): 33.9 µM (inactive)
- GI50 (DMS-114): 23.7 µM (inactive)
- GI50 (SNB-19): 40.3 µM (inactive)
- GI50 (COLO 205): 62.8 µM (inactive)
- GI50 (HT-29): 34 µM (inactive)
- GI50 (EKVX): 20.5 µM (inactive)
- GI50 (SR): 18.2 µM (inactive)
- GI50 (Malme-3M): > 100 µM (inactive)
- GI50 (NCI-H460): 27.2 µM (inactive)
- GI50 (UO-31): 18.8 µM (inactive)
- GI50 (SK-MEL-28): 32.4 µM (inactive)
- GI50 (HCT-116): 21.7 µM (inactive)
